Source: patent US6534522B2, “Subtype-selective NMDA receptor ligands and the use thereof” (Warner-Lambert Company, priority 1995, dated 2003)
Counter-ions that a name gives are not always drawn. Like-named read-outs stand apart in the source and are kept apart here.

Key:
[1] = tested on: Maximal Electroshock-induced Seizures; assay: Maximal electroshock-induced seizures; assay type: in vivo, mice; settings: Mus musculus, read-out: Mes. ED50
Experimental: Maximal Electroshock-induced Seizures. Seizures were induced by application of current (50 mA, 60 pulses/sec, 0.8 sec pulse width, 1 sec duration, d.c.) through saline-coated corneal electrodes using a Ugo Basile ECT device (Model 7801). […] A tonic seizure was defined as a hindlimb extension in excess of 90 degrees from the plane of the body. Results were treated in a quantal manner.

NR1A/2A NMDA receptor = NR1A/2A NMDA receptor (Rattus norvegicus, UniProt P35439+Q00959); assay: Xenopus oocyte expression system, two-electrode voltage clamp, NR1A/2A; assay type: cell-based
Description: (§1) Electrophysiological assays may be utilized to characterize the actions of potential subtype-selective ligands at NMDA receptors expressed in Xenopus oocytes. The ligand may be assayed at the different subunit combinations of cloned rat NMDA receptors corresponding to the four putative NMDA receptor subtypes (Moriyoshi et al., Nature (Lond.) 354:31-37 (1991); Monyer et al., Science (Washington, D.C.) 256:1217-1221 (1992); Kutsuwada et al., Nature (Lond.) 358:36-41 (1992); Sugihara et al., Biochem. Biophys. Res. Comm. 185:826-832 (1992)).
(§2) Using fixed saturating concentrations of agonists (glutamate 100 μM, glycine 1-10 μM depending on subunit combination), the inhibitory potency of a putative subtype-selective ligand may be assayed at the NMDA receptors assembled from NR1A/2A, NR1A/2B, NR1A/2C and NR1A/2D subunit combinations.
(§3) The Xenopus oocyte expression system. Mature female Xenopus laevis were anaesthetized (20-40 min) using 0.15% 3-aminobenzoic acid ethyl ester (MS-222) and 2-4 ovarian lobes were surgically removed. Oocytes at developmental stages IV-VI (Dumont, J. N., J. Morphol. 136:153-180 (1972)), were dissected from the ovary still surrounded by enveloping ovarian tissues. Follicle-enclosed oocytes were micro-injected with 1:1 mixtures of cRNA:NR1A+NR2A, 2B, 2C or 2D; injecting ˜2, 5, or 20 ng of RNA encoding each receptor subunit. NR1A encoding cRNA was injected alone at ˜20 ng. Oocytes were stored in Barth's medium containing (in mM): NaCl, 88; KCl, 1; CaCl2, 0.41; Ca(NO3)2, 0.33; MgSO4, 0.82; NaHCO3, 2.4; HEPES 5; pH 7.4, with 0.1 mg/mL gentamycin sulphate. While oocytes were still surrounded by enveloping ovarian tissues the Barth's medium was supplemented with 0.1% bovine serum. Oocytes were defolliculated 1-2 days following injections by treatment with collagenase (0.5 mg/mL Sigma Type I for 0.5-1 hr) (Miledi and Woodward, J. Physiol. (Lond.) 416:601-621 (1989)) and subsequently stored in serum-free medium.
(§4) Electrical recordings were made using a conventional two-electrode voltage clamp (Dagan TEV-200) over periods ranging between 3-21 days following injection. Oocytes were placed in a 0.1 mL recording chamber continuously perfused (5-15 mL min^−1) with frog Ringer's solution containing (in mM): NaCl, 115; KCl, 2; CaCl2, 1.8; HEPES, 5; pH 7.4. Drugs were applied by bath perfusion. When using the more rapid flow rates, half-times for mid-chamber solution changes were between 2-3 sec, however, exchange rates for drug solutions at the oocyte surface (i.e. beneath the vitelline envelope and among the tangles of microvilli) were probably considerably longer (Woodward et al., Mol. Pharmacol. 41:89-103 (1992)). Zero-Ca^2+/Ba^2+ Ringer had the composition (in mM): NaCl, 115; KCl, 2; BaCl2, 1.8; HEPES, 5; pH 7.4. Intraoocyte injections were made by pneumatic pressure-pulse ejection from micropipettes (Miledi and Parker, J. Physiol. (Lond.) 357:173-183 (1984)). Injection solutions of EGTA (40-400 mM) and BAPTA (50-500 mM) were made up in H2O, pH adjusted to 7.4 with KOH or HCl, and filtered to minimize plugging (Acrodisc-13, […]). Pressure was set between 200-400 kPa. The volume of injections was regulated by adjusting the time of pulses (0.1-1 sec) and was estimated by measuring the diameters of ejected droplets.
(§5) Concentration-inhibition curves were fit with equation 2.
(§6) I/Icontrol=1/(1+([antagonist]/10^−pIC50)^n) Eq. 2
(§7) in which Icontrol is the current evoked by agonists alone, pIC50=−log IC50, […] is the concentration of antagonist that produces half maximal inhibition, and n is the slope factor. For incomplete curves analysis by fitting was unreliable and IC50 values were calculated by simple regression over linear portions of the curves (Origin: Microcal Software).
(§8) Drugs were initially dissolved at concentrations of 10-100 mM in DMSO. Dilutions were then made to generate a series of DMSO stock solutions over the range 10 μM to 100 mM. Working solutions were made by 1000-3000 fold dilution of stocks into Ringer. […]

NR1A/2C NMDA receptor = NR1A/2C NMDA receptor (Rattus norvegicus, UniProt P35439+Q00961); assay: Xenopus oocyte expression system, two-electrode voltage clamp, NR1A/2C; assay type: cell-based
Description: as §1, §2, §3, §4, §5, §6, §7, §8

NR1A/2B NMDA receptor = NR1A/2B NMDA receptor (Rattus norvegicus, UniProt P35439+Q00960); assay: Xenopus oocyte expression system, two-electrode voltage clamp, NR1A/2B; assay type: cell-based
Description: as §1, §2, §3, §4, §5, §6, §7, §8

[2] = cloned NR1A/2A subunits expressed in Xenopus oocytes, inhibition of agonist-evoked membrane current, read-out: 1A/2A IC50
[3] = cloned NR1A/2C subunits expressed in Xenopus oocytes, inhibition of agonist-evoked membrane current, read-out: 1A/2C IC50
[4] = cloned NR1A/2B subunits expressed in Xenopus oocytes, inhibition of agonist-evoked membrane current, read-out: 1A/2B IC50
[5] = mice, tonic hindlimb extensor response after corneal current 50 mA

Sequence of NR1A/2C NMDA receptor (Q00961 20-1237, other chains not shown): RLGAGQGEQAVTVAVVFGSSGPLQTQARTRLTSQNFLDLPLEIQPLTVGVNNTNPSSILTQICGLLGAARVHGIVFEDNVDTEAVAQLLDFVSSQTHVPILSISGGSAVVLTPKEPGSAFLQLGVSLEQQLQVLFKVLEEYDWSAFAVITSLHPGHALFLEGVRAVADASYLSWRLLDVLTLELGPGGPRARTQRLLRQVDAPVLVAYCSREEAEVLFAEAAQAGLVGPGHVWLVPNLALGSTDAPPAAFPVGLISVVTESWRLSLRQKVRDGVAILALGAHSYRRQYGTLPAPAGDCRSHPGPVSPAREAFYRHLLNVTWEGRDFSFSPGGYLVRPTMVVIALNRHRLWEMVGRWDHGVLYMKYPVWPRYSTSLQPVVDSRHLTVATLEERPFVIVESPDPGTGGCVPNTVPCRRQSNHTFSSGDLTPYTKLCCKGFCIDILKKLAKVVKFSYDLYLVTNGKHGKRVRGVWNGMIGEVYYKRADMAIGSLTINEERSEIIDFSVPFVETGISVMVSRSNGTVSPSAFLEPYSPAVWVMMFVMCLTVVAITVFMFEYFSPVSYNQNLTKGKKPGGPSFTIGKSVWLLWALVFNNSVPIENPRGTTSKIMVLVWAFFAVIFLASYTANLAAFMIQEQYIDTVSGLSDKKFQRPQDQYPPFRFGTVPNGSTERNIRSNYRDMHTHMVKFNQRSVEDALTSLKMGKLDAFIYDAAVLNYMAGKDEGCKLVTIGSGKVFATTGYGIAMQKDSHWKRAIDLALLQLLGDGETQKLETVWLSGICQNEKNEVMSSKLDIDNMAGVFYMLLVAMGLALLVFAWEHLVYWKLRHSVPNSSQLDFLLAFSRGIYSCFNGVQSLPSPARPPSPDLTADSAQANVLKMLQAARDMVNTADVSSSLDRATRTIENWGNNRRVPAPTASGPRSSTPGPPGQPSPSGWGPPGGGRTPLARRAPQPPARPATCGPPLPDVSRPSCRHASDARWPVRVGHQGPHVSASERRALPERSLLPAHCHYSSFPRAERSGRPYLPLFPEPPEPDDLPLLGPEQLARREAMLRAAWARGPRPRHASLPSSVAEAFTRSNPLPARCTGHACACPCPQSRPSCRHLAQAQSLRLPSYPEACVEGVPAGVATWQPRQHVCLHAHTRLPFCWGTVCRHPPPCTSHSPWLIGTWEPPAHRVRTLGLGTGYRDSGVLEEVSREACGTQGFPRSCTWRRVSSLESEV
Sequence of NR1A/2A NMDA receptor (Q00959 20-1464 limits assumed, other chains not shown): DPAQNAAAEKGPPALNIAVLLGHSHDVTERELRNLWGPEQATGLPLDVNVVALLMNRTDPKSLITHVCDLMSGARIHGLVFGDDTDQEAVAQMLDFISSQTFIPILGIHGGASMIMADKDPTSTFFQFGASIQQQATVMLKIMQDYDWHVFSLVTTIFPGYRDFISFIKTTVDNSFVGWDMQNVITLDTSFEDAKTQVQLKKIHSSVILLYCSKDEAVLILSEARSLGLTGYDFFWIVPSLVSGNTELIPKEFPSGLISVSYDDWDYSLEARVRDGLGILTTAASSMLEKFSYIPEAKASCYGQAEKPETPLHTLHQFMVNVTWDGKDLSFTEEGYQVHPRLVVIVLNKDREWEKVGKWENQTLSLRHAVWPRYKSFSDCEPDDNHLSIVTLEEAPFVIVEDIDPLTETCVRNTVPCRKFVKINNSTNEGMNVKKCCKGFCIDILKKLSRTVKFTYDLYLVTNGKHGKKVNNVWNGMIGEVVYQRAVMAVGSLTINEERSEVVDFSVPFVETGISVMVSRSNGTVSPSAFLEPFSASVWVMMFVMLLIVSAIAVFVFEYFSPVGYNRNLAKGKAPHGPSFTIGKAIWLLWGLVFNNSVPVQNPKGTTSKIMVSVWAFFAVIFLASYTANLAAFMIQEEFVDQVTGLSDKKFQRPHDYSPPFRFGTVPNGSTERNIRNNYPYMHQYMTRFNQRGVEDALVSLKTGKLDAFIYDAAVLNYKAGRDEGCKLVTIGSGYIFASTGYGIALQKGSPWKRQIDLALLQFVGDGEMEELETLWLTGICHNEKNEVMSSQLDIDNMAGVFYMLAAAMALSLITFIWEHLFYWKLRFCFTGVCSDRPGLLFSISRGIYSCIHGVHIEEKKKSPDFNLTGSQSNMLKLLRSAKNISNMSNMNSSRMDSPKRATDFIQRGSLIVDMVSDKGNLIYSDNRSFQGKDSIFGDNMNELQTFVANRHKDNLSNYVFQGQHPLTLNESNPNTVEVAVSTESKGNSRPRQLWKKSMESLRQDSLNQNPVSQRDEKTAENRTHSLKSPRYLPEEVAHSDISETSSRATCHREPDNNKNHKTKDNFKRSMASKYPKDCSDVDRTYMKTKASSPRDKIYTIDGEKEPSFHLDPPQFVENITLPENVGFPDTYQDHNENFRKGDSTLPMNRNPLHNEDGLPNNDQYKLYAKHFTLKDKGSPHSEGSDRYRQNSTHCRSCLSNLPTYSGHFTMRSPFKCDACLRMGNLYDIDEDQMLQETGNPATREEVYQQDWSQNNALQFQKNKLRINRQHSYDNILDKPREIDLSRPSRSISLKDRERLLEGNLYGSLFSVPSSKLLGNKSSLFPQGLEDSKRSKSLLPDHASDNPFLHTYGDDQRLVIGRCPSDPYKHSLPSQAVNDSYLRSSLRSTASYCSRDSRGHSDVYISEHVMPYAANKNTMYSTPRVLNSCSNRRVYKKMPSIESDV
Sequence of NR1A/2B NMDA receptor (Q00960 27-1482, other chains not shown): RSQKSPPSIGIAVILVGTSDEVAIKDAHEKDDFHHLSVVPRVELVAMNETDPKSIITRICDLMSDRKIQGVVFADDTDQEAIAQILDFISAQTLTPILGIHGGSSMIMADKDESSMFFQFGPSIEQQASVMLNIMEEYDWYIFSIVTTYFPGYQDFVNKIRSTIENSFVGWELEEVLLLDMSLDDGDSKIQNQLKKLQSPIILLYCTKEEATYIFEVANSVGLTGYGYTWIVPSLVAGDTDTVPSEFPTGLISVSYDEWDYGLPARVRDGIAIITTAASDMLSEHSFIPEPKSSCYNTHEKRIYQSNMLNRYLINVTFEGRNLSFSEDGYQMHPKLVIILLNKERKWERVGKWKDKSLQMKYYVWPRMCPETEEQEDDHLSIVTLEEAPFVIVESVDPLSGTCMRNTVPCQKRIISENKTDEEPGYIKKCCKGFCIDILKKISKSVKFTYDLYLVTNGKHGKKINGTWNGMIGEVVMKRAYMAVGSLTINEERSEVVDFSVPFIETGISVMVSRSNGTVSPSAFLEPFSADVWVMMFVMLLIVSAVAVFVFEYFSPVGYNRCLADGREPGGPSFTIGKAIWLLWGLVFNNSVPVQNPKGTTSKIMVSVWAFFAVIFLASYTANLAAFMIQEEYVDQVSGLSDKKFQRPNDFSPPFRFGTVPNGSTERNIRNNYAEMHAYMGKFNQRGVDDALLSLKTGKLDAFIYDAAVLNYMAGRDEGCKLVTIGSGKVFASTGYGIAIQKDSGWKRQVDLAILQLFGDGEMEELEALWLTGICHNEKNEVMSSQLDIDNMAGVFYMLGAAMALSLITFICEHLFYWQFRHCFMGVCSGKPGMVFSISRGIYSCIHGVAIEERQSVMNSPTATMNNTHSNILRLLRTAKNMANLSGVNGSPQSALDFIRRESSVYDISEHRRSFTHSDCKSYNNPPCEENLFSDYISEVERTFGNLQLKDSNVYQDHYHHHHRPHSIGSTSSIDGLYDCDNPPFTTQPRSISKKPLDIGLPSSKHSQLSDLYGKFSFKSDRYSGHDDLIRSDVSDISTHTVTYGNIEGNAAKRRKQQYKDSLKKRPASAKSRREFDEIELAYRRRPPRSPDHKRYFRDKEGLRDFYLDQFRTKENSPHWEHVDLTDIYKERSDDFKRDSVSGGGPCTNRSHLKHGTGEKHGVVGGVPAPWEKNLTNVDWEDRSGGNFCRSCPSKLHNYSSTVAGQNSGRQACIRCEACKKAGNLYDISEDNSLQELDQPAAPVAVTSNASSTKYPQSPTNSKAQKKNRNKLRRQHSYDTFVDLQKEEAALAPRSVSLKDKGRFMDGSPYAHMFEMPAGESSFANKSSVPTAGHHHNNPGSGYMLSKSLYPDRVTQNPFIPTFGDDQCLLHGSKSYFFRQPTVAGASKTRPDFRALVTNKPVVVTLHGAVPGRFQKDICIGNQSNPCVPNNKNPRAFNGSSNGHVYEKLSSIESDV

melting point [°C] | Compound | ED50 [1] [mg/kg] | IC50 (NR1A/2A NMDA receptor; [2]) [µM] | IC50 (NR1A/2C NMDA receptor; [3]) [µM] | IC50 (NR1A/2B NMDA receptor; [4]) [µM] | ED50 [1, 5] [mg/kg] | IC50 (NR1A/2A NMDA receptor) [µM] | IC50 (NR1A/2C NMDA receptor) [µM] | IC50 (NR1A/2B NMDA receptor) [µM]
 | OCCCN1CCC(Cc2ccccc2)CC1 [Ex. 83, 4-Benzyl-1-(3-hydroxypropyl)piperidine hydrobromide] | 3.5 | 224 | > 300 | 1.8 |  |  |  | 
 | OCCCN1CCC(Cc2ccc(Cl)cc2)CC1 [Ex. 89, 4-(4-Chlorobenzyl)-1-(3-hydroxypropyl) piperidine hydrobromide] |  | 150 | > 100 | 0.3 | 5 |  |  | 
 | CC(O)CCN1CCC(Cc2ccc(F)cc2)CC1 (stereo not shown) [Ex. 91, 4-(4-Fluorobenzyl)-1-(3-hydroxybutyl) piperidine hydrochloride] | 6 | 230 | > 300 | 2.5 |  |  |  | 
 | COc1ccc(CC2CCN(CCCO)CC2)cc1 [Ex. 93, 1-(3-Hydroxypropyl)-4-(4-methoxybenzyl) piperidine hydrobromide] | 8 | > 300 | > 300 | 9 |  |  |  | 
96 to 101 | CC(O)CCN1CCC(Cc2ccc(Cl)cc2)CC1.Cl (stereo not shown) [Ex. 99, 4-(4-chlorobenzyl)-1-(3-hydroxybutyl) piperidine hydrochloride] |  | > 300 | > 300 | 1.6 | 6 |  |  | 
134 to 136 | Cc1ccc(CC2CCN(CCC(C)O)CC2)cc1.Cl (stereo not shown) [Ex. 104, 4-(4-methylbenzyl)-1-(3-hydroxy-butyl) piperidine hydrochloride] |  | 110 | > 300 | 0.8 | 2 |  |  | 

Compound | melting point [°C] | ED50 [1] [mg/kg] | IC50 (NR1A/2A NMDA receptor; [2]) [µM] | IC50 (NR1A/2C NMDA receptor; [3]) [µM] | IC50 (NR1A/2B NMDA receptor; [4]) [µM] | ED50 [1, 5] [mg/kg] | IC50 (NR1A/2A NMDA receptor) [µM] | IC50 (NR1A/2C NMDA receptor) [µM] | IC50 (NR1A/2B NMDA receptor) [µM]
CC(O)CCN1CCC(Cc2ccccc2)CC1.Cl (stereo not shown) [Ex. 100, 4-benzyl-1-(3-hydroxy-butyl) piperidine hydrochloride] | 133 to 135 | 3.5 |  |  |  |  | > 300 | > 300 | 3
